# Entries after “also recorded” stand apart in the source; their conditions may differ. Read-outs that look alike come from different tables or passages of the source.
# Columns and labels:
# ABCG2 [1] = conditions: cited from earlier work
# [2] = parameters: method as in PMID 23150210; conditions: P.O.; ref [25]; cited from earlier work
# [3] = tested on: ABCG2-overexpressing tumors; conditions: ref per compound in Table 2; cited from earlier work
# [4] = cited from earlier work
# [5] = cited from earlier work; remark: listed apart in the source
# [6] = Pharmacokinetic study of MBL-II-141, CPT-11 and SN-38 (blood, liver, brain; LC-MS/MS); conditions: for Mean of differences in Blood levels, compound alone versus CPT-11 + MBL-II-141 / Mean of differences in Liver levels, compound alone versus CPT-11 + MBL-II-141 / Mean of differences in Brain levels, compound alone versus CPT-11 + MBL-II-141: paired t-test over time; for Mean of differences in Blood levels, compound alone versus CPT-11 + MBL-II-141: P (two tailed): CPT-11 0.3616, SN-38 0.0299, MBL-II-141 0.1555; for Mean of differences in Liver levels, compound alone versus CPT-11 + MBL-II-141: P (two tailed): CPT-11 0.6878, SN-38 0.1727, MBL-II-141 0.1046; for Mean of differences in Brain levels, compound alone versus CPT-11 + MBL-II-141: P (two tailed): CPT-11 0.0416, MBL-II-141 0.1059
# Procedure: In order to achieve possible cumulative effects, reiterated administrations (two or three) were carried out with a 4 h time interval between administrations. Blood samples were collected at either 1 h or 4 h after the last injection.
# Total blood samples were collected using dried heparinized syringes, avoiding modification of samples. Blood and plasma were stored at −80°C. […] Tissues were crushed using a dried cold system.
# Both assays were performed on a C18 column HypersilGold, (ThermoElectron), 3.0 μm, (100 mm × 2.1 mm i.d.). The mass spectrometry analysis was performed in positive ion mode with electrospray source. […] A volume of 50 μL of whole blood or tissue solution was introduced into a conic centrifuge and 50 μL of solution of the internal standard and 300 μL of cold acetonitrile were added. The sample was mixed and centrifuged for 10 min at 13000 g at 5°C. […] The residues were resuspended in 100 μL of mobile phase and 10 μL were injected into the HPLC device. […] When the concentration was over the upper standard concentration, a dilution of the sample was performed using blank whole blood or appropriate tissues. Peak area ratios of compound to the respective internal standard measured at each nominal concentration were used to construct weighted (1/concentration) least-square linear regression curves. […] Results in tissues were normalized to cellular protein content. Results in tissues were normalized to cellular protein content (C1600 Abott technology).
# ABCG2 [7] = conditions: cited from earlier work; remark: listed apart in the source
# HEK-pcDNA3.1 xenografts = experiment: Chemosensitization study, just-established ABCG2-negative tumors
# Procedure: (§1) 4.10^6 HEK-pcDNA3.1 or HEK-ABCG2 cells were sub-cutaneously injected into one flank of each SCID mouse, in solution with 50% matrigel. After the apparition of most tumors, mice were randomly distributed into 4 groups of 20 animals (10 ABCG2 negative and 10 ABCG2-positive tumors). […] Two independent injections were carried out per mouse.
# (§2) Treatments were intraperitoneally administered three times a week until mice sacrifice. […] Finally, mice were sacrificed when the tumor diameter reached 17 mm.
# (§3) Growth models. Tumor growth curves were modeled with GraphPad© Software. Gaussian distribution models were obtained according to the equation Y = Amplitude*exp (−0.5*((X-Mean)/SD)^2). The amplitude was the height of the center of the distribution in Y units. Mean was the X value at the center of the distribution. SD was a measure of the width of the distribution, in the same units as X. Another model was applied for sum of two Gaussian distributions with Y = one + two (One = Amplitude 1*exp(−0.5*((X-Mean1)/SD1)^2) and Two = Amplitude 2*exp(−0.5*((X-Mean2)/SD2)^2)). Amplitudes were the heights of the center of the distribution in Y units. Means were the X values at the center of the two distributions. SDs were measures of the widths of the distributions, in the same units as X.
# (§4) Paired t-test. The statistical test used was the paired t-test. It was applied for all data of growth tumor experiments and pharmacokinetics data.
# [8] = MBL-II-141 oral absorption study (force-feeding versus IP); assay type: in vivo, mouse
# Procedure: The availability of MBL-II-141 was evaluated by force-feeding (n = 4), and compared to intraperitoneal injection (n = 4). CD1 mice were treated with 10 mg/kg of MBL-II-141. After 4 h of treatment, total blood was collected from animals treated with heparin. Samples were stored at −80°C until quantification.
# Assay accuracy was in the range of 91–108%. […] Results in tissues were normalized to cellular protein content.
# SCID mice = experiment: MBL-II-141 tolerance assay; assay type: in vivo
# [9] = Solubility for experimental formulation; assay type: physicochemical
# Procedure: The experimental formulation of MBL-II-141 was determined according to its solubility properties.
# ABCC1 = conditions: mitoxantrone or calcein as substrates; cited from earlier work
# HEK293 cells = conditions: at 100 μM; cited from earlier work
# HEK293-ABCG2 cells = conditions: at 100 μM; cited from earlier work
# HEK293-pcDNA3.1 cells = conditions: at 100 μM; cited from earlier work
# HEK-ABCG2 xenografts = experiment: Chemosensitization of just-established ABCG2-positive tumors
# Procedure: as §1, §2, §3, §4
# HEK293 ABCG2 xenografts = experiment: Chemosensitization of well-established (8 mm) ABCG2-positive tumors; conditions: for slope of tumor growth: solvents 61 ± 3
# From the text: 1.10^6 HEK ABCG2 cells were sub-cutaneously injected into one flank of each SCID mouse, in solution with 30% matrigel. […] Each group contained 10 mice. The same protocol of treatment and follow-up were applied.
# Tumor growth curves were modeled with GraphPad© Software. Gaussian distribution models were obtained according to the equation Y = Amplitude*exp (−0.5*((X-Mean)/SD)^2). The amplitude was the height of the center of the distribution in Y units. Mean was the X value at the center of the distribution. SD was a measure of the width of the distribution, in the same units as X. Another model was applied for sum of two Gaussian distributions with Y = one + two (One = Amplitude 1*exp(−0.5*((X-Mean1)/SD1)^2) and Two = Amplitude 2*exp(−0.5*((X-Mean2)/SD2)^2)). Amplitudes were the heights of the center of the distribution in Y units. Means were the X values at the center of the two distributions. SDs were measures of the widths of the distributions, in the same units as X.
# The statistical test used was the paired t-test. It was applied for all data of growth tumor experiments and pharmacokinetics data.
# [10] = oral, ref per compound in Table 2
# [11] = CPT-11 20 mg/kg + MBL-II-141 10 mg/kg IP
# [12] = read-out: In vitro Inhibition (IC50), substrate Mitoxantrone, ref [13],[21],[35],[45]–[48] (GF120918), [7] (Triclabendazole)
# [13] = I.P., ref per compound in Table 2
# [14] = read-out: In vitro Inhibition (IC50), substrate Hoechst 3342, ref [6],[24],[49] (Ko143), [40] (YHO-13177)
# [15] = MBL-II-141 alone 10 mg/kg + PBS
# [16] = combination MBL-II-141 10 mg/kg + CPT-11 20 mg/kg
# [17] = MBL-II-141 10 mg/kg IP, SCID mice
structure (smiles),measurement,setting,value
CNC(=O)c1cc(Oc2ccc(NC(=O)Nc3ccc(Cl)c(C(F)(F)F)c3)cc2)ccn1 [Sorafenib],In vitro ABCG2 Specificity,ABCG2 [1]; ref per compound in Table 2,No
same,"In vivo Toxicity, Chronic",[2],> 25 mg/kg P.O.
same,In vivo Impact on Tumor growth,[3],Yes
same,"In vivo Toxicity, Acute",[4]; [10],> 25 mg/kg oral
CCc1c2c(nc3ccc(O)cc13)-c1cc3c(c(=O)n1C2)COC(=O)[C@]3(O)CC [SN-38],SN-38 plasma levels lower than CPT-11,"[5]; ICR mice, 1 h after the injection",27 fold
same,"Liver/Plasma ratio, fold-change induced by the combination treatment",[6]; 30 min,0.9 fold-change
same,"Liver/Plasma ratio, fold-change induced by the combination treatment",[6]; 60 min,0.6 fold-change
same,"Liver/Plasma ratio, fold-change induced by the combination treatment",[6]; 120 min,1.1 fold-change
same,"Liver/Plasma ratio, fold-change induced by the combination treatment",[6]; 240 min,1.0 fold-change
same,"Liver/Plasma ratio, fold-change induced by the combination treatment",[6]; 480 min,1.0 fold-change
same,change of SN-38 blood levels in the presence of MBL-II-141,[6]; [11],increased; also recorded: strongly increased
same,difference between CPT-11 and SN-38 levels (SN-38 lower),[6]; SCID mice,19 fold
same,time until which detected in blood,[6]; SN-38 after CPT-11 20 mg/kg IP,6 h
same,SN-38 levels in the brain,"[6]; after CPT-11 20 mg/kg IP, with or without MBL-II-141",below the limits of quantification; also recorded: under the limit of detection
same,"Mean of differences in Blood levels, compound alone versus CPT-11 + MBL-II-141",[6],-109.6
same,"Mean of differences in Liver levels, compound alone versus CPT-11 + MBL-II-141",[6],-12.65
CSc1nc2cc(Cl)c(Oc3cccc(Cl)c3Cl)cc2[nH]1 [Triclabendazole],IC50,ABCG2 [7]; [12],~10000 nM
same,"In vivo Toxicity, Acute",[4]; [13],> 100 mg/kg I.P.
same,In vivo Impact on Pharmacokinetics,"[5]; of Nitrofurantoin, ref [7]",Nitrofurantoin: Yes
COc1cc2c(cc1OC)CN(CCc1ccc(NC(=O)c3cccc4c(=O)c5cccc(OC)c5[nH]c34)cc1)CC2 [GF120918],In vitro ABCG2 Specificity,ABCG2 [1]; ref per compound in Table 2,No
same,In vivo Impact on Tumor growth,[3],Yes
same,IC50,ABCG2 [7]; [12],310 nM
"CCc1c2c(nc3ccc(OC(=O)N4CCC(N5CCCCC5)CC4)cc13)-c1cc3c(c(=O)n1C2)COC(=O)[C@]3(O)CC [CPT-11, irinotecan]",effect on growth of ABCG2-negative cells (tumors),HEK-pcDNA3.1 xenografts; CPT-11 alone 20 mg/kg,completely blocked
same,survival of mice bearing ABCG2-negative tumors,HEK-pcDNA3.1 xenografts; CPT-11 alone 20 mg/kg,100%
same,increase of CPT-11 brain levels in the presence of MBL-II-141,[6]; [11],approximately 2 fold
same,fraction lost from the blood at 4 h,[6]; CPT-11 20 mg/kg IP,90%
same,"Mean of differences in Brain levels, compound alone versus CPT-11 + MBL-II-141",[6],-2.085
same,"Mean of differences in Blood levels, compound alone versus CPT-11 + MBL-II-141",[6],-220.0
same,"Mean of differences in Liver levels, compound alone versus CPT-11 + MBL-II-141",[6],-28.86
COc1ccc(/C(C#N)=C/c2ccc(N3CCC(O)CC3)s2)cc1OC [YHO-13177],In vitro ABCG2 Specificity,ABCG2 [1]; ref per compound in Table 2,Yes
same,In vivo Impact on Tumor growth,[3],Yes
same,IC50,ABCG2 [7]; [14],~300 nM
same,"In vivo Toxicity, Acute","[4]; I.V., ref [13],[21],[35],[45]–[48] (GF120918), [40] (YHO-13177)",> 30 mg/kg I.V.
same,"In vivo Toxicity, Acute",[4]; [10],> 200 mg/kg oral
"COc1ccc2[nH]cc(CCNC(=O)c3cc(=O)c4c(OCc5ccc(Br)cc5)cccc4o3)c2c1 [MBL-II-141, 5-(4-bromobenzyloxy)-2-(2-(5-methoxyindolyl)ethyl-1-carbonyl)-4H-chromen-4-one]",blood level at 4 h under force-feeding in comparison to IP route (lower),"[8]; 10 mg/kg, difference not significant",approximately 2 fold
same,"In vivo Toxicity, Acute","[8]; oral (force-feeding), mice",> 10 mg/kg oral
same,acute toxicity in pilot study,SCID mice; 10 mg/kg per mouse,no acute toxicity
same,finding in the peritoneal cavity,SCID mice; 50 mg/kg 3 times a week for 1 month,slight deposit
same,"macroscopic analysis of organs (brain, heart, lungs, kidneys, liver and spleen)","SCID mice; 10, 30 or 50 mg/kg with CPT-11 20 mg/kg",no apparent lesions
same,"In vivo Toxicity, Acute","SCID mice; I.P., mice",> 50 mg/kg I.P.
same,"behavior (physical activity, appearance)","SCID mice; IP 10, 30 or 50 mg/kg in combination with CPT-11 20 mg/kg",did not show any modification in behavior
same,tolerance,"SCID mice; at 50 mg/kg, preliminary data",well tolerated
same,complete blood count proportion,"SCID mice; regardless of the administered dose of MBL-II-141 (10, 30, 50 mg/kg)",unchanged
same,safety on reiterated administrations,SCID mice; reiterated administrations,without any associated animal death or loss of weight
same,maximal solubility in DMSO,[9],250 mg/mL
same,effect on ABCC1-mediated transport,ABCC1,without any effect
same,cell death of HEK293 cells,HEK293 cells,less than 25%
same,cell survival,HEK293-ABCG2 cells,60%
same,cell survival,HEK293-pcDNA3.1 cells,75%
same,In vitro ABCG2 Specificity,ABCG2 [1]; MBL-II-141,Yes
same,type of ABCG2 inhibition towards mitoxantrone,ABCG2 [7],non-competitive
same,IC50,"ABCG2 [7]; read-out: IC50, inhibition of ABCG2 (mitoxantrone efflux), substrate mitoxantrone",110 nM
same,"Mean of differences between tumor growth curves, vehicles versus MBL-II-141 alone","HEK-ABCG2 xenografts; HEK-ABCG2, paired t-test P (two tailed) 0.015, 95% CI 16.93 to 138.1",77.51
same,ABCG2-positive tumors whose growth was completely blocked,"HEK-ABCG2 xenografts; MBL-II-141 10 mg/kg + CPT-11 20 mg/kg IP three times a week, freshly implanted tumors, SCID mice",90%
same,survival rate of mice bearing ABCG2-positive tumors,"HEK-ABCG2 xenografts; MBL-II-141 10 mg/kg + CPT-11 20 mg/kg, even 40 days after end of treatment",90%
same,inhibitory effect on growth of ABCG2-positive tumors,HEK-ABCG2 xenografts; [15],not observed
same,In vivo Impact on Tumor growth,"HEK-ABCG2 xenografts; with CPT-11, ABCG2-positive xenografts",Yes
same,"Mean of differences between tumor growth curves, vehicles versus MBL-II-141 alone","HEK-pcDNA3.1 xenografts; HEK-pcDNA3.1, paired t-test P (two tailed) 0.0006, 95% CI 171.0 to 512.9",342
same,effect on growth of ABCG2-negative tumors,HEK-pcDNA3.1 xenografts; [15],slight inhibitory effect
same,mice survival,HEK293 ABCG2 xenografts; [16],markedly increased
same,time at which tumors reached maximal size versus CPT-11 alone,HEK293 ABCG2 xenografts; [16],about two weeks later
same,slope of tumor growth,HEK293 ABCG2 xenografts; [16],41 ± 1 mm^3/day
same,"Mean of differences between tumor growth curves, Solvents versus MBL-II-141","HEK293 ABCG2 xenografts; paired t-test P (two tailed) < 0.0001, 95% CI 54.71 to 135.0",94.84
same,"Mean of differences between tumor growth curves, CPT-11 versus MBL-II-141 + CPT-11","HEK293 ABCG2 xenografts; paired t-test P (two tailed) < 0.0001, 95% CI 162.2 to 329.4",245.8
same,"Mean of differences between tumor growth curves, Solvents versus MBL-II-141 + CPT-11","HEK293 ABCG2 xenografts; paired t-test P (two tailed) < 0.0001, 95% CI 177.3 to 460.0",318.6
same,"Mean of differences between tumor growth curves, MBL-II-141 versus MBL-II-141 + CPT-11","HEK293 ABCG2 xenografts; paired t-test P (two tailed) < 0.0001, 95% CI 240.1 to 562.7",401.4
same,slope of tumor growth,HEK293 ABCG2 xenografts; single agent (MBL-II-141 10 mg/kg or CPT-11 20 mg/kg) three times a week,68 ± 3 mm^3/day
same,blood level after the third injection versus one or two injection(s),"[6]; 10 mg/kg IP, injections separated by 4 h, blood 1 h or 4 h after last injection",slight increase
same,"Brain/Plasma ratio, fold-change induced by the combination treatment",[6]; 30 min,1.1 fold-change
same,"Liver/Plasma ratio, fold-change induced by the combination treatment",[6]; 30 min,2.5 fold-change
same,"Brain/Plasma ratio, fold-change induced by the combination treatment",[6]; 60 min,0.3 fold-change
same,"Liver/Plasma ratio, fold-change induced by the combination treatment",[6]; 60 min,0.8 fold-change
same,"Brain/Plasma ratio, fold-change induced by the combination treatment",[6]; 120 min,0.4 fold-change
same,"Liver/Plasma ratio, fold-change induced by the combination treatment",[6]; 120 min,1.1 fold-change
same,"Brain/Plasma ratio, fold-change induced by the combination treatment",[6]; 240 min,3.0 fold-change
same,"Liver/Plasma ratio, fold-change induced by the combination treatment",[6]; 240 min,3.0 fold-change
same,level in total blood at 6 h,[6]; [17],below the detection limit
same,time of highest level in total blood,[6]; [17],0.5 h
same,distribution into the brain,"[6]; MBL-II-141 10 mg/kg IP, SCID mice, 10 mg/kg","low, but still detectable"
same,In vivo Impact on Pharmacokinetics,"[6]; of CPT-11, SCID mice",CPT-11: Yes
same,"Mean of differences in Brain levels, compound alone versus CPT-11 + MBL-II-141",[6],38.53
same,"Mean of differences in Blood levels, compound alone versus CPT-11 + MBL-II-141",[6],122.0
same,"Mean of differences in Liver levels, compound alone versus CPT-11 + MBL-II-141",[6],-39.78
COc1ccc2c3c([nH]c2c1)[C@H](CC(C)C)N1C(=O)[C@H](CCC(=O)OC(C)(C)C)NC(=O)[C@@H]1C3 [Ko143],In vitro ABCG2 Specificity,ABCG2 [1]; ref per compound in Table 2,Yes
same,"In vivo Toxicity, Acute",[4]; [13],> 10 mg/kg I.P.
same,"In vivo Toxicity, Acute",[4]; [10],> 50 mg/kg oral
same,increase of topotecan plasma levels (oral availability),[5]; ABCB1(−/−) mice,4 to 6 fold
same,In vivo Impact on Pharmacokinetics,"[5]; of Topotecan, ref [13],[21],[35],[45]–[48] (GF120918), [6],[24],[49] (Ko143)",Topotecan: Yes
